Legend:
[1] = test system: Nucleic Acid; test: Compound was evaluated for DNA-binding affinity using calf-thymus DNA; format: nucleic-acid assay; conditions: Bos taurus
[2] = test system: Nucleic Acid; test: Compound was evaluated for DNA-binding affinity using poly[d(AT)]2; format: nucleic-acid assay
[3] = test system: Nucleic Acid; test: Compound was evaluated for DNA-binding affinity using poly[d(GC)]2; format: nucleic-acid assay
[4] = test system: HeLa; test: Compound was tested for antitumor activity against the human uterine cancer cell (HeLa) line at concentration of […] x 10 e-5 M; format: functional
[5] = test system: HeLa; test: Compound was tested for antitumor activity against the human uterine cancer cell (HeLa) line at concentration of 1 x 10 e-6 M; format: functional
[6] = test system: HeLa; test: Compound was tested for antitumor activity against the human uterine cancer cell (HeLa) line at concentration of 1 x 10 e-7 M; format: functional
[7] = test system: HeLa; test: Compound was tested for antitumor activity against the human uterine cancer cell (HeLa) line at concentration of […] x 10 e-4 M; format: functional
[8] = Ratio of C50(GC) to that of C50(AT)

| SMILES | C50 [1] [µM] | C50 [2] [µM] | C50 [3] [µM] | Cell survival [4] [%] | Cell survival [5] [%] | Cell survival [6] [%] | Cell survival [7] [%] | Ratio [8] |
| --- | --- | --- | --- | --- | --- | --- | --- | --- |
| Cl.Cl.Cl.NCCNCc1cc(-c2ccccc2)nc2ccccc12 | 30 | 33 | 48 | 52 | 62 | 74 | 8 | 1.5 |
| Cl.Cl.Cl.NCCNCc1ccc2ccc(-c3ccccc3)nc2c1 | 11 | 11 | 16 | 31 | 70 | 98 | 3 | 1.5 |
| Cl.Cl.Cl.NCCNCc1c2ccccc2nc2ccccc12 |  |  |  | 71 | 94 | 100 | 3 |  |
| Cl.Cl.Cl.NCCNCc1ccc(-c2ccc3ccccc3n2)cc1 | 7 | 7 | 11 | 65 | 87 | 79 | 3 | 1.6 |
| Cl.Cl.Cl.NCCNCc1cccc2ccc(-c3ccccc3)nc12 | 2.1 | 5.2 | 5.6 | 7 | 65 | 77 | 0 | 1.1 |
| Cl.Cl.NCCNCc1ccc2nc(-c3ccccc3)ccc2c1 |  |  |  | 44 | 82 | 85 | 0 |  |

From ChEMBL document CHEMBL1130992, “Effect of side chain location in (2-aminoethyl)-aminomethyl-2-phenylquinolines as antitumor agents” (1998)
